Experimental data: patent US8669250B2, “Derivatives of aryl-{4-halogeno-4-[aminomethyl]-piperidin-1-yl}-methanone, their method of preparation and their use as medicinal products” (Pierre Fabre Medicament, priority 2009, dated 2014)
Entries after “also recorded” stand apart in the source; their conditions may differ.

What was measured:
[1] = target: T1, 5-HT1A receptor (Rattus norvegicus, UniProt P19327); test: Affinity for 5-HT1A receptors, shift of (3H)8-OH-DPAT in rat cerebral cortex; type: binding; details: mean of at least 3 experiments, read-out: 5-HT1A affinity (pKi) (converted)
T1 construct: the cerebral cortex is sampled and homogenized in 20 volumes of buffer; from tissue; host or cells: rat cerebral cortex homogenate (membranes)
T1 sequence (P19327 1-422): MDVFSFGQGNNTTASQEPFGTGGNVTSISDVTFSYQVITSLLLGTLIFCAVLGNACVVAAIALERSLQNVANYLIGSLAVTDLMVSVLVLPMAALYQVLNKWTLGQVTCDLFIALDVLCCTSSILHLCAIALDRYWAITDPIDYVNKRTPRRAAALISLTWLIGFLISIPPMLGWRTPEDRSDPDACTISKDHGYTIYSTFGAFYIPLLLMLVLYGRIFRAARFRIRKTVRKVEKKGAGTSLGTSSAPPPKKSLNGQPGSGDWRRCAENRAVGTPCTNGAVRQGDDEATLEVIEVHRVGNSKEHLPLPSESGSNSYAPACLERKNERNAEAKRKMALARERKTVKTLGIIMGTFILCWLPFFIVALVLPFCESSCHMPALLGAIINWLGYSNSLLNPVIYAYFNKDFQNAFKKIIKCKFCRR
Experimental: (§1) The affinity of the compounds of the invention for the rat 5-HT1A receptor was measured conventionally from competitive experiments with a radiolabelled 5-HT1A agonist. […] This test is widely used since it is predictive of antidepressant action in man. Analgesic activity was determined after intra-peritoneal administration to rats, both with a physiological pain model and a pathological pain model. By physiological pain, the inventors designate pain whose origin is a lesion and/or organic ill-function such as pain caused by excessive nociceptive stimuli.
The in vitro affinity of the compounds of the invention for the 5-HT1A receptors was determined by measuring the shift of (^3H)8-OH-DPAT (agonist of 5HT1A receptors labelled with tritium, TRK 850; 160-240 Ci/mmole).
The study on binding with the 5-HT1A receptor was conducted as described in Naunyn-Schmiedeberg's Arch. Pharmaco. 1991, 343, 106. For these experiments, rat cerebral cortices were used. After unfreezing the brain in Tris-HCl buffer 50 mmol, pH=7.40 at 25° C., the cerebral cortex is sampled and homogenized in 20 volumes of buffer held at 4° C. The homogenate is centrifuged at 39000 g for 10 min, the centrifuge residue is suspended in the same volume of buffer and again centrifuged. After further suspension under the same conditions, the homogenate is incubated for 10 min at 37° C. then again centrifuged. The final residue is suspended in cold reaction buffer Tris-HCl 50 mmol, pH=7.40 at 25° C. containing […] of pargyline, 4 mmol of CaCl2 and 0.10% ascorbic acid. The final concentration of the tissue in the incubation medium is 10 mg/tube.
The reaction tubes contain 0.10 mL of (^3H)8-OH-DPAT (final […]), 0.10 mL of product to be tested 6-7 concentrations and 0.80 mL of tissue. Non-specific binding is defined using […] of 5-HT. The reaction tubes are incubated at 23° C. for 30 min then their content is rapidly vacuum filtered through Whatman GF/B filters, the tubes are rinsed with 2×5 mL of Tris-HCl buffer 50 mmol, pH=7.4 at 25° C. Radioactivity is collected on the filter and analyzed by liquid scintillation by adding 4 mL of scintillating liquid (Emulsifier Safe, Packard). All experiments were performed in triplicate.
The inhibition constants (Ki) of the products of the invention are estimated from shift experiments using the non-linear regression programme RADLIG version 4 by EBDA (Equilibrium Binding Data Analysis Biosoft, Cambridge, UK, Mc Pherson, 1985). The dissociation constant of the radioactive ligand used for calculations is […] for (^3H)8-OH-DPAT. The values of pKi (−log Ki) are given in the form mean±SEM of at least 3 experiments.

[2] = tested on: rats, forced swimming immobility; test: Forced swimming test (antidepressant activity); type: in vivo; details: rat, oral
Experimental: as §1
The rats (Male Sprague Dawley rats (ICO: OFA SD [IOPS], Iffa Credo, France), are placed in a cylinder (45 cm high and 20 cm in diameter) filled with water at 25° C.±0.5 up to a height of 17 cm. This depth allows rats to swim or float without their tail touching the bottom of the cylinder.
24 h before the test day, the rats are placed in the cylinder for 15 min, a lapse of time after which they no longer attempt to escape and remain immobile. On the test day the animals are replaced in the cylinder and the duration of animal immobility is measured by direct observation followed by verification of an audiovisual recording for 5 min. The products of the invention are administered by oral route 60 min before the test. A rat is considered to be immobile if it allows itself to float and only makes small movements to remain on the surface. Two rats are observed at the same time.
(§2) Quantification of the effect of the compounds of the invention on the forced swimming tests and on the formol test is conducted by one-factor variance analysis between groups (ANOVA analysis) followed by a multiple comparison test (Dunnett's test) versus control animals. The ED50 value is calculated using Litchfield and Wilcoxon analysis from the percentage of responding animals.

[3] = tested on: rats, formol-induced pain; test: Formol test (analgesic activity, physiological pain); type: in vivo; details: rat, i.p.
Description: (§3) The physiological pain model chosen by the inventors to determine the analgesic activity of the compounds of the invention uses excess nociceptive stimuli (injection of formol) to cause a painful sensation in animal (Eur. J. Pharmacol. 2001, 421, 109). For the so-called pathological pain model in animal, the inventors chose to use pain induced by the injection of a cytotoxic agent such as oxaliplatine (Eur. J. Cancer 2007, 2658).
The rats (Male Sprague Dawley rats (ICO: OFA SD [IOPS], Iffa Credo, France) are placed in plexiglass observation boxes above an angled mirror so as to facilitate observation of the hind paws. After thirty minutes of habituation, the animals are given an injection of formol diluted to 2.5% on the plantar surface of the right hind paw. The injection of formol produces behavioural responses which occur in two phases:
an acute phase, from 0 to 5 min after injection of the formol, corresponding to stimulation of receptors specialized in the transmission of pain messages to the spinal cord.
a late phase which occurs 20 to 30 min after the injection. This phase corresponds to stimulation of receptors by inflammatory mediators and/or to hyper-excitability of the dorsal horn induced during the first phase. This late phase therefore involves central sensitization.
For the study of the compounds of the invention we selected two expressions of painful behaviour and chose two periods of observation which correspond to the two pain phases (i.e. 0-5 min and 22.5-27.5 min). During these two 5-min periods the animals are observed every 30 seconds and are given scores for the following behaviours: paw licking or not of the injected paw, and lifting or non-lifting of the injected paw. Ten observations give a maximum score of 10 for each parameter for each of the 2 phases. The products of the invention are administered via intraperitoneal route 15 min before the injection of formol.
as §2
For this test, the animals are observed every 30 seconds during two periods of 5 min. The following behaviours are noted: paw licking or not of the injected paw, and paw lifting or not of the injected paw. Ten observations give a maximum score of 10 for each parameter for each of the 2 phases, measuring either paw lifting or paw licking. This test was also performed by comparison with administration of the vehicle (veh) alone.

[4] = tested on: rats, oxaliplatine-induced allodynia; test: Oxaliplatine test, von Frey (analgesic activity, pathological pain); type: in vivo; details: rat, i.p.
Description: as §3
The rats (Male Sprague Dawley rats (ICO: OFA SD [IOPS], Iffa Credo, France) are tested a first time on the Friday to determine their mechanical sensitivity threshold (von Frey test). They are then given an intra-peritoneal injection (i.p.) of oxaliplatine (anticancer treatment causing neuropathic pain in patients) at a dose of 8 mg/kg. This dose in rat induces neuropathy which translates as mechanical hypersensitivity (allodynia) which develops 3 days after the injection with a peak on day five. For the study of the compounds of the invention, the animals are re-tested on day five, 15 min after administration of the compound via intra-peritoneal route.
The pressure force is then measured (in g) at which withdrawal of the paw of the animals is observed.

O=C(c1ccc(F)c(Cl)c1)N1CCC(F)(CNCC2CNc3ccccc3O2)CC1 (single isomer, unassigned; (-)) [Compound 1a1, (−)-(3-Chloro-4-fluoro-phenyl)-{4-fluoro-4-[(3,4-dihydro-2H-1,4-benzoxazine-2-methanamino)-methyl]-pipéridin-1-yl}-methanone]
Ki [1]: 1.02 nM | dose on and after which none of the animals remains immobile [2]: ≥ 10 mg/kg | ED50 ([2]; 60 min before test, read-out: ED50, reduction of immobility time): 0.08 mg/kg | effect on animal immobility time ([2]; dose range): reducing the animal's immobility time in dose-dependent fashion | ED50 ([3]; ip, 15 min before formol, read-out: ED50, inhibition of paw lifting): 0.05 mg/kg | effect on paw lifting and paw licking, in words ([3]; acute and late phases): dose-dependent inhibition of the 2 measured parameters; also recorded: Full analgesia is obtained irrespective of the pain phase | dose on and after which full analgesia is obtained ([4]; day five after oxaliplatine, von Frey): ≥ 0.04 mg/kg | effect on allodynia, in words ([4]; dose range): dose-dependent inhibition of allodynia
